Data published in ChEMBL document CHEMBL3885861, “Open TG-GATES”.

Organism: Rattus norvegicus
Assay: Open TG-GATES - Regimen: Single
Assay type: toxicity, organism-based, Sprague-Dawley
Design: regimen Single, gender Male, age 6 weeks
Details: in vivo, po, 0 mg/kg, route gavage, dose level Control; for Bas / Eos / Hb / Ht / Lym / MCH / MCHC / MCV / Mono / Neu / Plat / RBC / Ret / WBC: tissue Blood; for KIDNEY_L / KIDNEY_R / KIDNEY_TOTAL: tissue Kidney; for LIVER: tissue Liver; for A/G / ALP / ALT / AST / BUN / CRE / Ca / Cl / DBIL / GLC / IP / K / LDH / Na / PL / RALB / TBIL / TC / TG / TP / gamma-GTP: tissue Plasma

Cc1ccc2cc3c(ccc4ccccc43)c3c2c1CC3 [3-METHYLCHOLANTHRENE]
TERMINAL_BW (3 h): 209.2 g | Bas (3 h): 0% | Eos (3 h): 0.6% | Hb (3 h): 12.8 g/dL | Ht (3 h): 39.3% | Lym (3 h): 79.2% | MCH (3 h): 20.8 pg | MCHC (3 h): 32.6% | MCV (3 h): 63.7 fL | Mono (3 h): 3.6% | Neu (3 h): 16.2% | Plat (3 h): 126.1 x10_4/uL | RBC (3 h): 616.6 x10_4/ul | Ret (3 h): 8.7% | WBC (3 h): 119.3 x10_2/uL | KIDNEY_L (3 h): 0.9 g | KIDNEY_R (3 h): 0.9 g | KIDNEY_TOTAL (3 h): 1.9 g | LIVER (3 h): 9.3 g | A/G (3 h): 1.1 | ALP (3 h): 1726.2 IU/L | ALT (3 h): 46.2 IU/L | AST (3 h): 77.6 IU/L | BUN (3 h): 10.5 mg/dL | CRE (3 h): 0.1 mg/dL | Ca (3 h): 10.7 mg/dL | Cl (3 h): 104.3 meq/L | DBIL (3 h): 0.002 mg/dL | GLC (3 h): 185.2 mg/dL | IP (3 h): 7.7 mg/dL | K (3 h): 3.9 meq/L | LDH (3 h): 179.6 IU/L | Na (3 h): 140.3 meq/L | PL (3 h): 163.8 mg/dL | RALB (3 h): 2.8 g/dL | TBIL (3 h): 0.002 mg/dL | TC (3 h): 77.2 mg/dL | TG (3 h): 142.8 mg/dL | TP (3 h): 5.6 g/dL | gamma-GTP (3 h): 0.7 IU/L | TERMINAL_BW (6 h): 206.1 g | Bas (6 h): 0% | Eos (6 h): 0.6% | Hb (6 h): 12.8 g/dL | Ht (6 h): 38.9% | Lym (6 h): 69% | MCH (6 h): 20.7 pg | MCHC (6 h): 32.8% | MCV (6 h): 63.2 fL | Mono (6 h): 3.4% | Neu (6 h): 26.2% | Plat (6 h): 124.5 x10_4/uL | RBC (6 h): 616.2 x10_4/ul | Ret (6 h): 8.7% | WBC (6 h): 125.8 x10_2/uL | KIDNEY_L (6 h): 0.9 g | KIDNEY_R (6 h): 0.9 g | KIDNEY_TOTAL (6 h): 1.8 g | LIVER (6 h): 8.4 g | A/G (6 h): 1 | ALP (6 h): 1728.2 IU/L | ALT (6 h): 38 IU/L | AST (6 h): 69.6 IU/L | BUN (6 h): 8.9 mg/dL | CRE (6 h): 0.1 mg/dL | Ca (6 h): 10.4 mg/dL | Cl (6 h): 104.5 meq/L | DBIL (6 h): 0.002 mg/dL | GLC (6 h): 201.6 mg/dL | IP (6 h): 9.9 mg/dL | K (6 h): 4.3 meq/L | LDH (6 h): 114.8 IU/L | Na (6 h): 139.9 meq/L | PL (6 h): 142.4 mg/dL | RALB (6 h): 2.7 g/dL | TBIL (6 h): 0.014 mg/dL | TC (6 h): 80.2 mg/dL | TG (6 h): 51 mg/dL | TP (6 h): 5.5 g/dL | gamma-GTP (6 h): 0.7 IU/L | TERMINAL_BW (9 h): 204.4 g | Bas (9 h): 0% | Eos (9 h): 0.6% | Hb (9 h): 12.5 g/dL | Ht (9 h): 38.9% | Lym (9 h): 75.2% | MCH (9 h): 20.7 pg | MCHC (9 h): 32.1% | MCV (9 h): 64.5 fL | Mono (9 h): 2.6% | Neu (9 h): 21% | Plat (9 h): 129.6 x10_4/uL | RBC (9 h): 603.8 x10_4/ul | Ret (9 h): 9% | WBC (9 h): 80.7 x10_2/uL | KIDNEY_L (9 h): 1 g | KIDNEY_R (9 h): 1 g | KIDNEY_TOTAL (9 h): 1.9 g | LIVER (9 h): 8.4 g | A/G (9 h): 1 | ALP (9 h): 1550.4 IU/L | ALT (9 h): 33.8 IU/L | AST (9 h): 63.4 IU/L | BUN (9 h): 10.6 mg/dL | CRE (9 h): 0.1 mg/dL | Ca (9 h): 10.6 mg/dL | Cl (9 h): 103.4 meq/L | DBIL (9 h): 0.004 mg/dL | GLC (9 h): 176.6 mg/dL | IP (9 h): 10.9 mg/dL | K (9 h): 4.4 meq/L | LDH (9 h): 137.8 IU/L | Na (9 h): 141.6 meq/L | PL (9 h): 132.2 mg/dL | RALB (9 h): 2.7 g/dL | TBIL (9 h): 0.006 mg/dL | TC (9 h): 71.4 mg/dL | TG (9 h): 52.7 mg/dL | TP (9 h): 5.5 g/dL | gamma-GTP (9 h): 0.7 IU/L | TERMINAL_BW (24 h): 220.6 g | Bas (24 h): 0% | Eos (24 h): 0.6% | Hb (24 h): 12.6 g/dL | Ht (24 h): 38.4% | Lym (24 h): 79.4% | MCH (24 h): 20.5 pg | MCHC (24 h): 32.7% | MCV (24 h): 62.7 fL | Mono (24 h): 3.2% | Neu (24 h): 16% | Plat (24 h): 119.3 x10_4/uL | RBC (24 h): 612.8 x10_4/ul | Ret (24 h): 8% | WBC (24 h): 100 x10_2/uL | KIDNEY_L (24 h): 0.9 g | KIDNEY_R (24 h): 1 g | KIDNEY_TOTAL (24 h): 1.9 g | LIVER (24 h): 9.8 g | A/G (24 h): 1 | ALP (24 h): 1697 IU/L | ALT (24 h): 38 IU/L | AST (24 h): 72 IU/L | BUN (24 h): 13.8 mg/dL | CRE (24 h): 0.1 mg/dL | Ca (24 h): 10.9 mg/dL | Cl (24 h): 103 meq/L | DBIL (24 h): 0 mg/dL | GLC (24 h): 186.2 mg/dL | IP (24 h): 7.1 mg/dL | K (24 h): 4.4 meq/L | LDH (24 h): 181 IU/L | Na (24 h): 142 meq/L | PL (24 h): 160.8 mg/dL | RALB (24 h): 2.8 g/dL | TBIL (24 h): 0.006 mg/dL | TC (24 h): 82 mg/dL | TG (24 h): 134.9 mg/dL | TP (24 h): 5.5 g/dL | gamma-GTP (24 h): 0.8 IU/L
